{
  "source": "patent US20040180961A1",
  "about": "“Compositions and preparation methods for bioavailable oral aceclofenac dosage forms” (priority 2001, published 2004)",
  "assay": "Dissolution of aceclofenac in pure artificial gastric juice (paddle method)",
  "format": "physicochemical",
  "experimental": "The pharmaceutical preparation containing acelcofenac was completely dissolved in 500 ml of an ethanol solution containing phosphate buffer (pH 6.8) at a volume ratio of 50%, where a preparation further containing substances of low solubility was shaken for 10 min. The resultant solution was centrifuged at 15,000 rpm for 2 min, and then filtered with a 0.45 μm membrane filter. After properly diluting 1 ml of the filtered solution, sample was used in quantification of aceclofenac, using HPLC. In a analysis of aceclofenac, a column was C18 ODS column (4.6×150 mm, 5 μm), an absorbance was at a wave length of 282 nm, a mobile phase was a mixture of MeOH:0.02 M KH2PO4 (65:35), a flow rate was 1 ml/min. 20 μl of sample was injected. Quantification of aceclofenac was accomplished with width ratio of aceclofenac and internal standard (Ethyl paraben).\nDissolution rate of acelcofenac contained in the pharmaceutical preparation was analyzed according to the dissolution test method disclosed in a guidebook “Korea Pharmacopeia (7th revision)”. A NaCl—HCl buffer solution (pH 1.4±0.1) was used as artificial gastric juice, supplemented with Tween 80 in a volume ratio of 0.3% according to intended use. 0.02 M phosphate-buffered solution (pH 6.8±0.1) was used as an artificial intestinal juice. Dissolution was performed according to the paddle method at a stirring rate of 50 rpm and a dissolution temperature of 37±0.5° C., using 500 ml of dissolution solution. […] The collected sample was centrifuged at 15,000 rpm for 2 min and filtered using a 0.45 μm membrane filter. Quantification of aceclofenac was accomplished by using HPLC. In analyzing the dissolution rate of aceclofenac, column was C18 ODS column (4.6×150 mm, 5 μm), absorbance was a wave length of 282 nm, a mobile phase was a mixture of MeOH:0.02 M KH2PO4 (65:35), and a flow rate was 1 ml/min. 20 μl of sample was injected. Quantification of aceclofenac was accomplished with width ratio of aceclofenac and internal standard (Ethyl paraben) Dissolution rate (%) of aceclofenac contained in the solid powder preparations, prepared in example, was measured according to Experimental 5. Content of aceclofenac obtained in Experimental Example 4 was used as 100% and dissolution rate of aceclofenac contained in the solid powder preparations prepared in example was given as a percentage. Dissolution concentration (μg/ml) and dissolution rate (%) of aceclofenac contained in solid powder preparation in artificial gastric juice were measured, the results are given in Tables 1 to 3, below, […]",
  "data": [
    {"compound": "O=C(O)COC(=O)Cc1ccccc1Nc1c(Cl)cccc1Cl", "note": "[Aceclofenac]", "values": [
      {"measurement": "Dissolution concentration", "setting": "15 min", "value": 0.075, "unit": "µg/mL"},
      {"measurement": "Dissolution rate", "setting": "15 min", "value": "(0.04) %"},
      {"measurement": "Dissolution concentration", "setting": "30 min", "value": 0.063, "unit": "µg/mL"},
      {"measurement": "Dissolution rate", "setting": "30 min", "value": "(0.03) %"},
      {"measurement": "Dissolution concentration", "setting": "45 min", "value": 0.088, "unit": "µg/mL"},
      {"measurement": "Dissolution rate", "setting": "45 min", "value": "(0.05) %"},
      {"measurement": "Dissolution concentration", "setting": "60 min", "value": 0.090, "unit": "µg/mL"},
      {"measurement": "Dissolution rate", "setting": "60 min", "value": "(0.05) %"},
      {"measurement": "Dissolution concentration", "setting": "90 min", "value": 0.236, "unit": "µg/mL"},
      {"measurement": "Dissolution rate", "setting": "90 min", "value": "(0.12) %"}
    ]}
  ]
}
